Test results reported in BindingDB's records for doi:10.1021/jm970414b (University of Michigan, 1997).

Biological target: Glutathionylspermidine synthetase/amidase (Escherichia coli) (UniProt P0AES0)
Test: Inhibition of Glutathionylspermidine synthetase from Escherichia coli, value taken from literature

Sequence of Glutathionylspermidine synthetase/amidase (Escherichia coli) (P0AES0 whole entry, looked up): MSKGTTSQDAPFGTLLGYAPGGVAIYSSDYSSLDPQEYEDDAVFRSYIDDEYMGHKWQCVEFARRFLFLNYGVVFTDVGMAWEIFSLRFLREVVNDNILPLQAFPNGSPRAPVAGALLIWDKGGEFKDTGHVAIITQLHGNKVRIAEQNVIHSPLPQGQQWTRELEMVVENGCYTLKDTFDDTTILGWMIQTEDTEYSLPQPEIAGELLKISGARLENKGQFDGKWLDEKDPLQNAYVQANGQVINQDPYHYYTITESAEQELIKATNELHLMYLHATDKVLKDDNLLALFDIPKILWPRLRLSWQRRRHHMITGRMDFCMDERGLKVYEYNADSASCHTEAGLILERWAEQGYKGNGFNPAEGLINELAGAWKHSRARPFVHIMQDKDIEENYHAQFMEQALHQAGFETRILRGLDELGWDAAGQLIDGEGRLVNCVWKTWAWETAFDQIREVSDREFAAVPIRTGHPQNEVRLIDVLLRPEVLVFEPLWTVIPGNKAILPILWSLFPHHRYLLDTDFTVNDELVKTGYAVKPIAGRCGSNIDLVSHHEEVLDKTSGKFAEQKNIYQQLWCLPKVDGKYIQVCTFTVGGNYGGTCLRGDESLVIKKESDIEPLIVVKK

Ki: 14 µM
Compound: C[C@H](NC(=O)CC[C@H](N)C(=O)O)C(=O)NCP(=O)(O)OCCCNCCCCN [2-Amino-4-[1-({[3-(4-amino-butylamino)-propoxy]-hydroxy-phosphorylmethyl}-carbamoyl)-ethylcarbamoyl]-butyric acid]
